Measurements as given in patent US20190048016A1, “SUBSTITUTED BRIDGED UREA ANALOGS AS SIRTUIN MODULATORS” (GlaxoSmithKline Intellectual Property(No.2)Limited, priority 2014, published 2019).

Biological target: T1, SIRT1 (Homo sapiens, UniProt Q96EB6)
T1 sequence (Q96EB6 1-747): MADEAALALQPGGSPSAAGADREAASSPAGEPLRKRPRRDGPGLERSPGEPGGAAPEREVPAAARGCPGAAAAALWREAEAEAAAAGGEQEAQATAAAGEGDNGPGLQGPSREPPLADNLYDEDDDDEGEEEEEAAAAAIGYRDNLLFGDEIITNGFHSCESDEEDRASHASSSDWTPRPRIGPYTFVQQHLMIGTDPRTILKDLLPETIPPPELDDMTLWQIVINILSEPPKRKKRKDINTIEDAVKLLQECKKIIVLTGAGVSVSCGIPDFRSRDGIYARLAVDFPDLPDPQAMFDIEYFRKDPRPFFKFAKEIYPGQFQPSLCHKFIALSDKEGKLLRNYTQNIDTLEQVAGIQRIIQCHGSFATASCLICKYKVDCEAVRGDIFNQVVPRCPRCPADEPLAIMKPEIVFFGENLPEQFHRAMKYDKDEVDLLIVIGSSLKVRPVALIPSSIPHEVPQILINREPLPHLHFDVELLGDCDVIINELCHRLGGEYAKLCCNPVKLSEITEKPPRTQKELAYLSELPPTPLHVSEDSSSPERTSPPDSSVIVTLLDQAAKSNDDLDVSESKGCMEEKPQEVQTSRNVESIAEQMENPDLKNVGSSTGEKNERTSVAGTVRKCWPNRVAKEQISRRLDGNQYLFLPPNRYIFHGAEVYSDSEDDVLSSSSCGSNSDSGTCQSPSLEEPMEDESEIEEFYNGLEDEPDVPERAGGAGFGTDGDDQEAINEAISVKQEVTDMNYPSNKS
Test: Trp mass spectrometry assay of SIRT1 activation (deacetylation of Ac-R-H-K-K(Ac)-W-NH2 peptide, OAADPR formation)
Type: biochemical
Settings: Trp peptide 0.5 μM, 120 μM βNAD+, 10 nM SIRT1, 25 min, 25° C.; for Emax: 25 min, read-out: TRP MAX RESP (percent maximum fold activation relative to control = 100%)
Outline: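 10 nM His-tagged SIRT1 (E. coli expressed) with 0.5 μM Ac-RHKK(Ac)W-NH2 and 120 μM βNAD+, 25 min at 25° C, HEPES pH 7.5, […]; formic acid stop. OAADPR or deacetylated peptide measured by mass spectrometry; EC1.5 = concentration giving 150% activity versus DMSO control; maximum activation also reported.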

Structure (SMILES)	Emax [%]	TRP Activity (EC1.5, concentration of compound required to increase SIRT1 activity by 50% over control)
O=C(Nc1ccc(OC[C@H](O)CO)cn1)N1c2nc(-c3cccc(C(F)(F)F)c3)c(Cl)cc2N2CCC[C@H]1C2 [Example 87, (9S)-3-chloro-N-(5-((R)-2,3-dihydroxypropoxy)pyridin-2-yl)-2-(3-(trifluoromethyl)phenyl)-8,9-dihydro-6H-5,9-methanopyrido[2,3-b][1,4]diazocine-10(7H)-carboxamide]	≥ 150	A (EC1.5<1 μM)
O=C(Nc1ccnc(OC[C@H](O)CO)n1)N1c2nc(-c3cccc(C(F)(F)F)c3)c(Cl)cc2N2CCC[C@H]1C2 [Example 88, (9S)-3-chloro-N-(2-((R)-2,3-dihydroxypropoxy)pyrimidin-4-yl)-2-(3-(trifluoromethyl)phenyl)-8,9-dihydro-6H-5,9-methanopyrido[2,3-b][1,4]diazocine-10(7H)-carboxamide]	≥ 150	A (EC1.5<1 μM)
O=C(Nc1ncc(OC[C@H](O)CO)cn1)N1c2nc(-c3cccc(C(F)(F)F)c3)c(Cl)cc2N2CCC[C@H]1C2 [Example 89, (9S)-3-chloro-N-(5-((R)-2,3-dihydroxypropoxy)pyrimidin-2-yl)-2-(3-(trifluoromethyl)phenyl)-8,9-dihydro-6H-5,9-methanopyrido[2,3-b][1,4]diazocine-10(7H)-carboxamide]	≥ 150	A (EC1.5<1 μM)

Results, then the compound that gave them:

Emax [%]	TRP Activity (EC1.5, concentration of compound required to increase SIRT1 activity by 50% over control)	Structure (SMILES)
≥ 150	A (EC1.5<1 μM)	Cc1cc(-c2cc(C)c3c(n2)N(C(=O)Nc2cccnc2)[C@H]2CCCN3C2)ccn1 [Example 90, (9S)-4-methyl-2-(2-methylpyridin-4-yl)-N-(pyridin-3-yl)-8,9-dihydro-6H-5,9-methanopyrido[2,3-b][1,4]diazocine-10(7H)-carboxamide]
≥ 150	A (EC1.5<1 μM)	Cc1cc2c(nc1-c1cccc(C(F)(F)F)c1)N(C(=O)Nc1cc(OC[C@H](O)CO)ccn1)[C@H]1CCCN2C1 [Example 91, (9S)-N-(4-((R)-2,3-dihydroxypropoxy)pyridin-2-yl)-3-methyl-2-(3-(trifluoromethyl)phenyl)-8,9-dihydro-6H-5,9-methanopyrido[2,3-b][1,4]diazocine-10(7H)-carboxamide]
≥ 150	A (EC1.5<1 μM)	O=C(Nc1ncc(OC[C@@H](O)CO)cn1)N1c2nc(-c3cccc(C(F)(F)F)c3)c(Cl)cc2N2CCC[C@H]1C2 [Example 92, (9S)-3-chloro-N-(5-((S)-2,3-dihydroxypropoxy)pyrimidin-2-yl)-2-(3-(trifluoromethyl)phenyl)-8,9-dihydro-6H-5,9-methanopyrido[2,3-b][1,4]diazocine-10(7H)-carboxamide]
